Values joined by “and” are separate entries in the source; they are usually repeats but may differ in a detail not shown here. Equal entries are not always repeated. Blank lines part the entries; values can stand above or below the molecule they belong to.
Legend:
PbENT1C43S = target: T1, PbENT1C43S (Plasmodium berghei, UniProt A0A509AYF4, C43S); experiment: ITC binding to PbENT1C43S
T1 construct: 10xHis (N); made in house; host or cells: Sf9 insect cells (baculovirus)
Procedure: (§1) All the constructs were subcloned and inserted into a modified pFastBac with an N-terminal 10 × His tag. The baculovirus was generated in DH10Bac for recombinant protein expression. After 72 h of infection, Sf9 insect cells were harvested. For structural determination of the PfENT1 protein, Sf9 cells were solubilized in buffer containing 25 mM MES (pH 6.0), 150 mM NaCl, 2% (w/v) n-dodecyl-β-D-maltopyranoside (DDM), and protease inhibitor cocktail (0.8 μM aprotinin, 2 μM pepstatin, and 5 μg/ml leupeptin) at 4 °C for 2 h. After centrifugation at 18,000 rpm for 45 min at 4 °C, the detergent-soluble supernatant was collected via centrifugation at 4 °C for 60 min and incubated with Ni-NTA resin (QIAGEN) at 4 °C for 20 min. The resin was further washed with 25 mM MES pH 6.0, 150 mM NaCl, 10 mM imidazole, and 0.05% (w/v) DDM and eluted with buffer containing 25 mM MES pH 6.0, 150 mM NaCl, 300 mM imidazole, and 0.05% (w/v) DDM. The protein was further purified via size-exclusion chromatography (Superdex 200 Increase 10/300; GE Healthcare) in buffer containing 25 mM MES (pH 6.0), 150 mM NaCl, and 0.05% (w/v) DDM. The peak fractions were pooled and concentrated to 10∼50 μM for the nucleoside-binding assay. The protein purification of the bacterial nucleoside transporter NupG was performed as described in previous studies ([35]).
(§2) […] binding to ENTs was measured at 25 °C via a MicroCal PEAQ-ITC. The purified ENT protein was concentrated to 25 to 50 μM for ITC experiments. The nucleoside was diluted to 5 mM via the same buffer employed for protein purification, which consisted of 25 mM MES (pH 6.0), 150 mM NaCl, and 0.05% DDM. The inhibitor was diluted to 250 μM via the same buffer employed for protein purification, which consisted of 25 mM MES (pH 6.0), 150 mM NaCl, and 0.05% DDM. All the titrations were repeated three times.

PbENT1 = target: T2, PbENT1 (Plasmodium berghei, UniProt A0A509AYF4); experiment: ITC binding to PbENT1; details: for Kd: 25 °C, 25 mM MES pH 6.0, 150 mM NaCl, 0.05% DDM, read-out: Kd (binding affinity for PbENT1)
T2 construct: 10xHis (N); made in house; host or cells: Sf9 insect cells (baculovirus)
T2 sequence (A0A509AYF4 1-412): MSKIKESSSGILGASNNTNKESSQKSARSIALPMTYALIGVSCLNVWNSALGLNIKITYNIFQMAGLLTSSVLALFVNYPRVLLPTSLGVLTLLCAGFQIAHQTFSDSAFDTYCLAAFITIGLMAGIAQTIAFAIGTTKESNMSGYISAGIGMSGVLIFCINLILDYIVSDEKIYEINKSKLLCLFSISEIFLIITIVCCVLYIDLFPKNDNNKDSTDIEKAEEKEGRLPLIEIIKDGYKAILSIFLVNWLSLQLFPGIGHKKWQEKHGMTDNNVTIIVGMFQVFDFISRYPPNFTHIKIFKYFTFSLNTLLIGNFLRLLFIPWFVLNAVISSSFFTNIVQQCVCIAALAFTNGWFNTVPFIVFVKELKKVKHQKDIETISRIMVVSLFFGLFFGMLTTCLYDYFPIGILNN
Procedure: as §1, §2

PfENT1S49C = target: T3, PfENT1S49C (Plasmodium falciparum, UniProt Q8IDM6, S49C); experiment: ITC binding to PfENT1S49C
T3 construct: 10xHis (N); made in house; host or cells: Sf9 insect cells (baculovirus)
T3 sequence (Q8IDM6 whole entry S49C): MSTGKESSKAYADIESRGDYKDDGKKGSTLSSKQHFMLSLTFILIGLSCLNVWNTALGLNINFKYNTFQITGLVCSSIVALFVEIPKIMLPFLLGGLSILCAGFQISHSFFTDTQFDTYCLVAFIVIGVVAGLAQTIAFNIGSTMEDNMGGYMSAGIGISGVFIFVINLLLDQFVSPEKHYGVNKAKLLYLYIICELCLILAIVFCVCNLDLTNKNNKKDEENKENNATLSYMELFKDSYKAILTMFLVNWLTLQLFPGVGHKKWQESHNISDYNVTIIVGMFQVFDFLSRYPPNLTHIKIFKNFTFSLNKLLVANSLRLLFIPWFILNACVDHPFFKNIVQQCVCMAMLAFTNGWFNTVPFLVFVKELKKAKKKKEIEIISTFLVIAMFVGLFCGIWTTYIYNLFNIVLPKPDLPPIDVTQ
Procedure: as §1, with “The protein purification of the bacterial nucleoside transporter NupG was performed as described in previous studies ([35]).” left out
(§3) […] binding to ENTs was measured at 25 °C via a MicroCal PEAQ-ITC. […]

PfENT1 [1] = target: T4, PfENT1 (Plasmodium falciparum, UniProt Q8IDM6); parameters: method as in PMID 36977719; details: competition assay; cited from earlier work
T4 construct: 10xHis (N); made in house; host or cells: Sf9 insect cells (baculovirus)
T4 sequence (Q8IDM6 whole entry): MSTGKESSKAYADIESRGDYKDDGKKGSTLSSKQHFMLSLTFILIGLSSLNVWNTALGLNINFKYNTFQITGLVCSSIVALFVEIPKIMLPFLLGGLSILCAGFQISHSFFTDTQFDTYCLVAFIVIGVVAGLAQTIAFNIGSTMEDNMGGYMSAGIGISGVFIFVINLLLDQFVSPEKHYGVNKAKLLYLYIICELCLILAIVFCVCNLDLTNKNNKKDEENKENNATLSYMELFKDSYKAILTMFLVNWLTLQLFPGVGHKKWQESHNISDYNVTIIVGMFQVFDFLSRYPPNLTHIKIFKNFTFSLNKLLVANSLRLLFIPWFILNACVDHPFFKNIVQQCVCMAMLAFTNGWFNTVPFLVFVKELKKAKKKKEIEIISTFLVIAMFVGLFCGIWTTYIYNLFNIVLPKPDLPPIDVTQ

PfENT1 [2] = target: T4, PfENT1; experiment: ITC binding to PfENT1
Procedure: as §1, §2

PbENT1L388M = target: T5, PbENT1L388M (Plasmodium berghei, UniProt A0A509AYF4, L388M); experiment: ITC binding to PbENT1L388M
T5 construct: 10xHis (N); made in house; host or cells: Sf9 insect cells (baculovirus)
T5 sequence (A0A509AYF4 whole entry L388M): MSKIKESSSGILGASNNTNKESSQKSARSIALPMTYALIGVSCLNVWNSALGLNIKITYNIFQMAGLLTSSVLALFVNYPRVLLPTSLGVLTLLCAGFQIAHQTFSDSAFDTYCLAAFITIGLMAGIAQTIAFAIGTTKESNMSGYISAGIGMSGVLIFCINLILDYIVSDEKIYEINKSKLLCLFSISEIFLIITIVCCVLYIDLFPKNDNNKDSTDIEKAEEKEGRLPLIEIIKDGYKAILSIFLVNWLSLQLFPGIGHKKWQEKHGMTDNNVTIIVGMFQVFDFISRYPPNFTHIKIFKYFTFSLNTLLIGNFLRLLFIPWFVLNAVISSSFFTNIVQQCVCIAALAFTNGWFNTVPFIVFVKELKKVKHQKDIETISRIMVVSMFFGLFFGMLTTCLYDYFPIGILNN
Procedure: as §1, with “The protein purification of the bacterial nucleoside transporter NupG was performed as described in previous studies ([35]).” left out
as §3

PvENT1 = target: T6, PvENT1 (Plasmodium vivax, UniProt A5K8B0); experiment: ITC binding to PvENT1; details: 25 °C, 25 mM MES pH 6.0, 150 mM NaCl, 0.05% DDM, read-out: Kd (binding affinity for PvENT1)
T6 construct: 10xHis (N); made in house; host or cells: Sf9 insect cells (baculovirus)
T6 sequence (A5K8B0 1-416): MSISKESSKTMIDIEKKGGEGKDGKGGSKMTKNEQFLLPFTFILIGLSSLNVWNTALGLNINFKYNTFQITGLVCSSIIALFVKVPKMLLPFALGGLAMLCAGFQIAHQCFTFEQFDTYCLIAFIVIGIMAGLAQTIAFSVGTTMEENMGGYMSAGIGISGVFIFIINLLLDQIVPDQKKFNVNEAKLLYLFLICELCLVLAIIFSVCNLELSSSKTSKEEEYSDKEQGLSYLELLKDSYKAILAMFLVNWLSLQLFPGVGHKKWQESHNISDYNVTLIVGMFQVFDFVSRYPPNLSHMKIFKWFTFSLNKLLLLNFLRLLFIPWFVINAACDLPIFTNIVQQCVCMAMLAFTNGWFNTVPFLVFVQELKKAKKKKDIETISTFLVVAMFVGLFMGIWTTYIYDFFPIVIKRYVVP
Procedure: as §1, §2

PfENT1M389L = target: T7, PfENT1M389L (Plasmodium falciparum, UniProt Q8IDM6, M389L); experiment: ITC binding to PfENT1M389L
T7 construct: 10xHis (N); made in house; host or cells: Sf9 insect cells (baculovirus)
T7 sequence (Q8IDM6 whole entry M389L): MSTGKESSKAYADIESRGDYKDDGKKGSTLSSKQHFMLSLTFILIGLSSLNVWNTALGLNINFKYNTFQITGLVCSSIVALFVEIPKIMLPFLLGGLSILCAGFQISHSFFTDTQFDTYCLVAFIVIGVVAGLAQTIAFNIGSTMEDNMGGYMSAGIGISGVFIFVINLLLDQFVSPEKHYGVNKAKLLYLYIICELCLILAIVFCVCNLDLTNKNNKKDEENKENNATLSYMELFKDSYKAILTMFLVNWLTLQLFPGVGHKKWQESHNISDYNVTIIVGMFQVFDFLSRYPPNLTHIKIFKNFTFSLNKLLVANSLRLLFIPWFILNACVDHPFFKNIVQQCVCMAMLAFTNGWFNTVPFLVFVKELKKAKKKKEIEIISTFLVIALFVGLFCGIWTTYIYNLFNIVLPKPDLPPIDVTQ
Procedure: as §1, §2

T1 sequence (A0A509AYF4 whole entry C43S): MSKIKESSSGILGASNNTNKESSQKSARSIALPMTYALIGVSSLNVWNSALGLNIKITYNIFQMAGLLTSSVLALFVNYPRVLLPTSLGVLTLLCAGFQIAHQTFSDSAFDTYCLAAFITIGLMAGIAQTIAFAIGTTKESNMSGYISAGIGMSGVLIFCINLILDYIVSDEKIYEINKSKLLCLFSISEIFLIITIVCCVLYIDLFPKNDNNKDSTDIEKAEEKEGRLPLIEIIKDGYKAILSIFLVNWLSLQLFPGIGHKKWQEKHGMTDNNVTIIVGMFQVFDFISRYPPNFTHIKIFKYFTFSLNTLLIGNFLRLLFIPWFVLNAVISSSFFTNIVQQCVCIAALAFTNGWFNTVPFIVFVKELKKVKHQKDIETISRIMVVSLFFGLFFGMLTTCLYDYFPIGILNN

SMILES: Nc1ncnc2c1ncn2[C@@H]1O[C@H](CO)[C@@H](O)[C@H]1O [adenosine]
- binding to PbENT1C43S (in words) (PbENT1C43S): did not show detectable adenosine binding
- Kd (PbENT1): 38100 nM and 36600 nM and 40500 nM
- thermodynamic pattern of binding to PfENT1S49C (PfENT1S49C): enthalpy-driven
- inhibition of the inosine transport activity of PfENT1 (PfENT1 [1]): effectively inhibited

SMILES: Cc1cn([C@H]2C[C@H](O)[C@@H](CO)O2)c(=O)[nH]c1=O [thymidine]
- binding affinity for PbENT1 (in words) (PbENT1): weak
- binding affinity for PfENT1 (in words) (PfENT1 [2]; PfENT1 WT): undetectable
- inhibition of the inosine transport activity of PfENT1 (PfENT1 [1]): effectively inhibited

- binding affinity for PbENT1 (in words) (PbENT1): No binding affinity was detected
SMILES: Nc1ccn([C@@H]2O[C@H](CO)[C@@H](O)[C@H]2O)c(=O)n1 [cytidine]

SMILES: Cc1oc(-c2ccccc2Cl)nc1C(=O)NCCN1CCCCCC1=O [GSK4-2]
- decrease in binding affinity for PfENT1 (versus GSK4) (PfENT1 [2]): 1.6 fold

SMILES: Cc1oc(-c2ccc(Cl)cc2)nc1C(=O)NCCN1CCCCCC1=O [GSK4-1]
- decrease in binding affinity for PfENT1 (versus GSK4) (PfENT1 [2]): 3.5 fold

SMILES: Cc1oc(-c2ccccc2)nc1C(=O)NCCN1CCCCCC1=O [GSK4]
- binding affinity of PbENT1L388M relative to PbENT1WT (PbENT1L388M): five times greater
- Kd (PbENT1L388M; Kd (binding to PbENT1L388M), 25 °C, pH 6.0): 2590 nM and 2090 nM and 2770 nM
- Kd (PvENT1): 54.3 nM and 37.2 nM and ~47.2 nM and 47.2 nM
- Kd (PbENT1): 15400 nM and 4920 nM and 12600 nM
- Kd (PfENT1 [2]; Kd (binding affinity for PfENT1), 25 °C, 25 mM MES pH 6.0, 150 mM NaCl, 0.05% DDM): 38.1 nM and 51.9 nM and 48.1 nM
- binding affinity of PfENT1M389L relative to PfENT1WT (PfENT1M389L): five times weaker
- Kd (PfENT1M389L; Kd (binding to PfENT1M389L), 25 °C, pH 6.0): 234 nM and 317 nM and 276 nM

Reference: PMC11787452, “Substrate and inhibitor specificity of Plasmodium nucleoside transporters ENT1 orthologs” (The Journal of Biological Chemistry, 2024)
